Measurements reported in article PMC10790750, “A widespread methylotroph acyl-homoserine lactone synthase produces a new quorum sensing signal that regulates swarming in Methylobacterium fujisawaense” (mBio, 2023).
Where two headings read alike, the source gives them in different places.

How the values were obtained:
Format in all cases: cell-based
MmaR (MmaRDSM5686) = target: T1, MmaR (MmaRDSM5686) (Methylobacterium fujisawaense, UniProt A0ABR6DCX3); experiment: mScarlet reporter activation in M. extorquens AWP370
T1 construct: gene GGQ91_003337; mmaR inserted in genome of Methylorubrum extorquens AWP227 (mlaR/mlaI deleted) under native mlaR promoter; reporter strain AWP370 with mmaI promoter-mScarlet

MmaI (Ga0373204_3345) = target: T2, MmaI (Ga0373204_3345) (Methylobacterium fujisawaense, UniProt A0ABR6DCY1); experiment: LC-MS/MS, NMR of culture extract; deletion mutant control; settings: native strain grown on methanol
T2 construct: gene GGQ91_003338; native expression in DSM5686; deletion mutant as control

Mrad2831_5763 (MmaI) = target: T3, Mrad2831_5763 (MmaI) (Methylobacterium radiotolerans, UniProt B1M2Q9); experiment: LC-MS/MS of culture extract after heterologous expression; settings: product identified by m/z, retention time and fragmentation
T3 construct: heterologously expressed
T3 sequence (B1M2Q9 1-207): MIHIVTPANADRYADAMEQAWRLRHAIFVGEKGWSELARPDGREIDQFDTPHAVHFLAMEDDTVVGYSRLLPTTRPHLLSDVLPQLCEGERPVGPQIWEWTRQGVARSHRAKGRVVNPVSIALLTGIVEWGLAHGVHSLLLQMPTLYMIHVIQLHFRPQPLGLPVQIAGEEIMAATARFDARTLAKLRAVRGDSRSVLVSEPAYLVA

T1 sequence (A0ABR6DCX3 entry or part of it): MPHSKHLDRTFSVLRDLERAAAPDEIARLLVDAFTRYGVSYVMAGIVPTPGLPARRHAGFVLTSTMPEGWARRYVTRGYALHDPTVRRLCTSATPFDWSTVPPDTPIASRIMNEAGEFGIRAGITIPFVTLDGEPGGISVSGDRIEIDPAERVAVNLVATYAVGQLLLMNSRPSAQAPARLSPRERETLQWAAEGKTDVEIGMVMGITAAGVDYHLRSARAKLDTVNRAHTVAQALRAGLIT
T2 sequence (A0ABR6DCY1 entry or part of it): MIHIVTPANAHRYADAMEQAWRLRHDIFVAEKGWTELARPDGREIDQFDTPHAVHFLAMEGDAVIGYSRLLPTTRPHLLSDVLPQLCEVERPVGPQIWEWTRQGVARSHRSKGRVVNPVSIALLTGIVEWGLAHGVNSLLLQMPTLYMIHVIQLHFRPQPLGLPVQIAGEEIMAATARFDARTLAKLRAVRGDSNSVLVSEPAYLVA

EC50 (MmaR (MmaRDSM5686)) [nM] | EC50 (MmaR (MmaRDSM5686); purified natural signal added, mmaI promoter-mScarlet reporter, agonist) [nM] | Structure (SMILES) | LC-MS/MS, NMR of culture extract; deletion mutant control (MmaI (Ga0373204_3345)) | LC-MS/MS of culture extract after heterologous expression (Mrad2831_5763 (MmaI))
1.7 | – | CCCCCCCCCC(O)CC(=O)N[C@H]1CCOC1=O (stereo partly shown) [3-OH-C12-HSL] | – | –
– | 0.2 | CCCCCC/C=C\C[C@@H](O)CC(=O)NC1CCOC1=O (stereo partly drawn) [3R-OH-5Z-C12:1-HSL, N-(3R-hydroxy-5-cis-dodecenoyl)-L-homoserine lactone] | this feature was not present in a culture of an in-frame, unmarked deletion mutant | we observed a feature with the same m/z, retention time, and fragmentation pattern
